# Key:
# Assay type in all cases: functional
# Klebsiella aerogenes [1] = experiment: Antibacterial activity against Enterobacter aerogenes 17-3 assessed as reduction in bacterial growth
# Escherichia coli [2] = experiment: Antibacterial activity against ESBLs positive Carbapenem-sensitive Escherichia coli 17-2 assessed as reduction in bacterial growth
# Klebsiella aerogenes [3] = experiment: Antibacterial activity against Enterobacter aerogenes 17-4 assessed as reduction in bacterial growth
# Klebsiella pneumoniae [4] = experiment: Antibacterial activity against Carbapenem- resistant Klebsiella pneumoniae KR 15-11 assessed as reduction in bacterial growth
# Pseudomonas aeruginosa [5] = experiment: Antibacterial activity against Carbapenem- resistant Pseudomonas aeruginosa 17-8 assessed as reduction in bacterial growth
# Acinetobacter baumannii [6] = experiment: Antibacterial activity against Carbapenem- resistant Acinetobacter baumannii 17-12 assessed as reduction in bacterial growth
# Pseudomonas aeruginosa [7] = experiment: Antibacterial activity against Pseudomonas aeruginosa ATCC 27853 assessed as reduction in bacterial growth
# Klebsiella pneumoniae [8] = experiment: Antibacterial activity against Carbapenem- resistant Klebsiella pneumoniae KR 15-10 assessed as reduction in bacterial growth
# Klebsiella aerogenes [9] = experiment: Antibacterial activity against Enterobacter aerogenes 17-1 assessed as reduction in bacterial growth
# Klebsiella pneumoniae [10] = experiment: Antibacterial activity against Klebsiella pneumoniae ATCC BAA-1705 assessed as reduction in bacterial growth
# Pseudomonas aeruginosa [11] = experiment: Antibacterial activity against Carbapenem- sensitive Pseudomonas aeruginosa 17-10 assessed as reduction in bacterial growth
# Klebsiella pneumoniae [12] = experiment: Antibacterial activity against Carbapenem- sensitive Klebsiella pneumoniae 17-5 overexpressing extended spectrum beta-lactamases assessed as reduction in bacterial growth
# Enterobacter cloacae [13] = experiment: Antibacterial activity against Enterobacter cloacae 17-7 assessed as reduction in bacterial growth
# Klebsiella pneumoniae [14] = experiment: Antibacterial activity against Carbapenem- sensitive Klebsiella pneumoniae 17-8 overexpressing extended spectrum beta-lactamases assessed as reduction in bacterial growth
# Acinetobacter baumannii [15] = experiment: Antibacterial activity against Carbapenem- resistant Acinetobacter baumannii 17-5 assessed as reduction in bacterial growth
# Klebsiella pneumoniae [16] = experiment: Antibacterial activity against Carbapenem- resistant Klebsiella pneumoniae KR 15-9 assessed as reduction in bacterial growth
# Pseudomonas aeruginosa [17] = experiment: Antibacterial activity against Carbapenem- resistant Pseudomonas aeruginosa 17-5 assessed as reduction in bacterial growth
# Klebsiella pneumoniae [18] = experiment: Antibacterial activity against Carbapenem- resistant Klebsiella pneumoniae KR 15-5 assessed as reduction in bacterial growth
# Escherichia coli [19] = experiment: Antibacterial activity against ESBLs positive Carbapenem-sensitive Escherichia coli 17-22 assessed as reduction in bacterial growth
# Klebsiella pneumoniae [20] = experiment: Antibacterial activity against ESBLs negative Carbapenem-sensitive Klebsiella pneumonia 15-2 assessed as reduction in bacterial growth
# Pseudomonas aeruginosa [21] = experiment: Antibacterial activity against Carbapenem- sensitive Pseudomonas aeruginosa 17-21 assessed as reduction in bacterial growth
# Klebsiella pneumoniae [22] = experiment: Antibacterial activity against Carbapenem- sensitive Klebsiella pneumoniae 17-11 overexpressing extended spectrum beta-lactamases assessed as reduction in bacterial growth
# Acinetobacter baumannii [23] = experiment: Antibacterial activity against Carbapenem- resistant Acinetobacter baumannii 17-8 assessed as reduction in bacterial growth
# Escherichia coli [24] = experiment: Antibacterial activity against Escherichia coli ATCC 25922 assessed as reduction in bacterial growth
# Klebsiella pneumoniae [25] = experiment: Antibacterial activity against ESBLs negative Carbapenem-sensitive Klebsiella pneumoniae 17-18 assessed as reduction in bacterial growth
# Enterobacter cloacae [26] = experiment: Antibacterial activity against Enterobacter cloacae 17-9 assessed as reduction in bacterial growth
# Klebsiella pneumoniae [27] = experiment: Antibacterial activity against Carbapenem- sensitive Klebsiella pneumoniae 17-7 overexpressing extended spectrum beta-lactamases assessed as reduction in bacterial growth
# Escherichia coli [28] = experiment: Antibacterial activity against ESBLs positive Carbapenem-sensitive Escherichia coli 17-8 assessed as reduction in bacterial growth
# Escherichia coli [29] = experiment: Antibacterial activity against ESBLs positive Carbapenem-sensitive Escherichia coli 17-14 assessed as reduction in bacterial growth
# Escherichia coli [30] = experiment: Antibacterial activity against ESBLs positive Carbapenem-sensitive Escherichia coli 17-3 assessed as reduction in bacterial growth
# Enterobacter cloacae [31] = experiment: Antibacterial activity against Enterobacter cloacae 17-8 assessed as reduction in bacterial growth
# Escherichia coli [32] = experiment: Antibacterial activity against ESBLs negative Carbapenem-sensitive Escherichia coli 17-1 assessed as reduction in bacterial growth
# Pseudomonas aeruginosa [33] = experiment: Antibacterial activity against Carbapenem- sensitive Pseudomonas aeruginosa 17-29 assessed as reduction in bacterial growth
# Acinetobacter baumannii [34] = experiment: Antibacterial activity against Carbapenem- resistant Acinetobacter baumannii 17-2 assessed as reduction in bacterial growth
# Enterobacter cloacae [35] = experiment: Antibacterial activity against Enterobacter cloacae 17-10 assessed as reduction in bacterial growth
# Klebsiella pneumoniae [36] = experiment: Antibacterial activity against Carbapenem- sensitive Klebsiella pneumoniae 17-10 overexpressing extended spectrum beta-lactamases assessed as reduction in bacterial growth
# Klebsiella pneumoniae [37] = experiment: Antibacterial activity against Carbapenem- sensitive Klebsiella pneumoniae 17-3 overexpressing extended spectrum beta-lactamases assessed as reduction in bacterial growth
# Klebsiella pneumoniae [38] = experiment: Antibacterial activity against Carbapenem- sensitive Klebsiella pneumoniae 17-4 overexpressing extended spectrum beta-lactamases assessed as reduction in bacterial growth
# Klebsiella aerogenes [39] = experiment: Antibacterial activity against Enterobacter aerogenes 15-5 assessed as reduction in bacterial growth
# Enterobacter cloacae [40] = experiment: Antibacterial activity against Enterobacter cloacae 17-2 assessed as reduction in bacterial growth
# Escherichia coli [41] = experiment: Antibacterial activity against ESBLs positive Carbapenem-sensitive Escherichia coli 17-21 assessed as reduction in bacterial growth
# Klebsiella pneumoniae [42] = experiment: Antibacterial activity against Carbapenem- resistant Klebsiella pneumoniae KR 15-6 assessed as reduction in bacterial growth
# Klebsiella pneumoniae [43] = experiment: Antibacterial activity against ESBLs negative Carbapenem-sensitive Klebsiella pneumoniae 17-16 assessed as reduction in bacterial growth
# Escherichia coli [44] = experiment: Antibacterial activity against ESBLs positive Carbapenem-sensitive Escherichia coli 17-11 assessed as reduction in bacterial growth
# Pseudomonas aeruginosa [45] = experiment: Antibacterial activity against Carbapenem- sensitive Pseudomonas aeruginosa 17-26 assessed as reduction in bacterial growth
# Acinetobacter baumannii [46] = experiment: Antibacterial activity against Acinetobacter baumannii NCTC 13304 assessed as reduction in bacterial growth
# Enterobacter cloacae [47] = experiment: Antibacterial activity against Enterobacter cloacae 17-5 assessed as reduction in bacterial growth
# Klebsiella pneumoniae [48] = experiment: Antibacterial activity against Carbapenem- sensitive Klebsiella pneumoniae 17-14 overexpressing extended spectrum beta-lactamases assessed as reduction in bacterial growth
# Escherichia coli [49] = experiment: Antibacterial activity against ESBLs positive Carbapenem-sensitive Escherichia coli 17-18 assessed as reduction in bacterial growth
# Escherichia coli [50] = experiment: Antibacterial activity against ESBLs negative Carbapenem-sensitive Escherichia coli 17-16 assessed as reduction in bacterial growth
# Klebsiella pneumoniae [51] = experiment: Antibacterial activity against Carbapenem- sensitive Klebsiella pneumoniae 17-12 overexpressing extended spectrum beta-lactamases assessed as reduction in bacterial growth
# Escherichia coli [52] = experiment: Antibacterial activity against ESBLs negative Carbapenem-sensitive Escherichia coli 17-9 assessed as reduction in bacterial growth
# Klebsiella aerogenes [53] = experiment: Antibacterial activity against Enterobacter aerogenes 15-7 assessed as reduction in bacterial growth
# Pseudomonas aeruginosa [54] = experiment: Antibacterial activity against Carbapenem- sensitive Pseudomonas aeruginosa 17-24 assessed as reduction in bacterial growth
structure (smiles),measurement,setting,value
CC(C)(O/N=C(\C(=O)N[C@@H]1C(=O)N2C(C(=O)[O-])=C(C[n+]3ccccc3)CS[C@H]12)c1csc(N)n1)C(=O)O [CEFTAZIDIME],MIC,Klebsiella aerogenes [1],0.5 µg/mL
same,MIC,Escherichia coli [2],2 µg/mL
same,MIC,Klebsiella aerogenes [3],8 µg/mL
same,MIC,Klebsiella pneumoniae [4],> 64 µg/mL
same,MIC,Pseudomonas aeruginosa [5],32 µg/mL
same,MIC,Acinetobacter baumannii [6],64 µg/mL
same,MIC,Pseudomonas aeruginosa [7],1 µg/mL
same,MIC,Klebsiella pneumoniae [8],> 64 µg/mL
same,MIC,Klebsiella aerogenes [9],8 µg/mL
same,MIC,Klebsiella pneumoniae [10],64 µg/mL
same,MIC,Pseudomonas aeruginosa [11],8 µg/mL
same,MIC,Klebsiella pneumoniae [12],1 µg/mL
same,MIC,Enterobacter cloacae [13],> 64 µg/mL
same,MIC,Klebsiella pneumoniae [14],> 64 µg/mL
same,MIC,Acinetobacter baumannii [15],> 64 µg/mL
same,MIC,Klebsiella pneumoniae [16],64 µg/mL
same,MIC,Pseudomonas aeruginosa [17],64 µg/mL
same,MIC,Klebsiella pneumoniae [18],> 64 µg/mL
same,MIC,Escherichia coli [19],> 64 µg/mL
same,MIC,Klebsiella pneumoniae [20],0.125 µg/mL
same,MIC,Pseudomonas aeruginosa [21],4 µg/mL
same,MIC,Klebsiella pneumoniae [22],8 µg/mL
same,MIC,Acinetobacter baumannii [23],> 64 µg/mL
same,MIC,Escherichia coli [24],0.06 µg/mL
same,MIC,Klebsiella pneumoniae [25],0.125 µg/mL
same,MIC,Enterobacter cloacae [26],0.5 µg/mL
same,MIC,Klebsiella pneumoniae [27],> 64 µg/mL
same,MIC,Escherichia coli [28],16 µg/mL
same,MIC,Escherichia coli [29],16 µg/mL
same,MIC,Escherichia coli [30],2 µg/mL
same,MIC,Enterobacter cloacae [31],0.125 µg/mL
same,MIC,Escherichia coli [32],64 µg/mL
same,MIC,Pseudomonas aeruginosa [33],1 µg/mL
same,MIC,Acinetobacter baumannii [34],> 64 µg/mL
same,MIC,Enterobacter cloacae [35],1 µg/mL
same,MIC,Klebsiella pneumoniae [36],16 µg/mL
same,MIC,Klebsiella pneumoniae [37],> 64 µg/mL
same,MIC,Klebsiella pneumoniae [38],> 64 µg/mL
same,MIC,Klebsiella aerogenes [39],16 µg/mL
same,MIC,Enterobacter cloacae [40],64 µg/mL
same,MIC,Escherichia coli [41],8 µg/mL
same,MIC,Klebsiella pneumoniae [42],32 µg/mL
same,MIC,Klebsiella pneumoniae [43],2 µg/mL
same,MIC,Escherichia coli [44],32 µg/mL
same,MIC,Pseudomonas aeruginosa [45],1 µg/mL
same,MIC,Acinetobacter baumannii [46],64 µg/mL
same,MIC,Enterobacter cloacae [47],64 µg/mL
same,MIC,Klebsiella pneumoniae [48],2 µg/mL
same,MIC,Escherichia coli [49],2 µg/mL
same,MIC,Escherichia coli [50],0.5 µg/mL
same,MIC,Klebsiella pneumoniae [51],4 µg/mL
same,MIC,Escherichia coli [52],0.5 µg/mL
same,MIC,Klebsiella aerogenes [53],16 µg/mL
same,MIC,Pseudomonas aeruginosa [54],2 µg/mL
C[C@@H](O)[C@H]1C(=O)N2C(C(=O)O)=C(S[C@@H]3CN[C@H](C(=O)N(C)C)C3)[C@H](C)[C@H]12 [MEROPENEM],MIC,Klebsiella aerogenes [1],< 0.03 µg/mL
same,MIC,Escherichia coli [2],< 0.03 µg/mL
same,MIC,Klebsiella aerogenes [3],0.125 µg/mL
same,MIC,Klebsiella pneumoniae [4],32 µg/mL
same,MIC,Pseudomonas aeruginosa [5],32 µg/mL
same,MIC,Acinetobacter baumannii [6],16 µg/mL
same,MIC,Pseudomonas aeruginosa [7],1 µg/mL
same,MIC,Klebsiella pneumoniae [8],> 64 µg/mL
same,MIC,Klebsiella aerogenes [9],0.125 µg/mL
same,MIC,Klebsiella pneumoniae [10],32 µg/mL
same,MIC,Pseudomonas aeruginosa [11],0.25 µg/mL
same,MIC,Klebsiella pneumoniae [12],< 0.03 µg/mL
same,MIC,Enterobacter cloacae [13],0.25 µg/mL
same,MIC,Klebsiella pneumoniae [14],0.125 µg/mL
same,MIC,Acinetobacter baumannii [15],64 µg/mL
same,MIC,Klebsiella pneumoniae [16],> 64 µg/mL
same,MIC,Pseudomonas aeruginosa [17],32 µg/mL
same,MIC,Klebsiella pneumoniae [18],> 64 µg/mL
same,MIC,Escherichia coli [19],0.06 µg/mL
same,MIC,Klebsiella pneumoniae [20],< 0.03 µg/mL
same,MIC,Pseudomonas aeruginosa [21],2 µg/mL
same,MIC,Klebsiella pneumoniae [22],0.06 µg/mL
same,MIC,Acinetobacter baumannii [23],32 µg/mL
same,MIC,Escherichia coli [24],< 0.03 µg/mL
same,MIC,Klebsiella pneumoniae [25],< 0.03 µg/mL
same,MIC,Enterobacter cloacae [26],< 0.03 µg/mL
same,MIC,Klebsiella pneumoniae [27],0.06 µg/mL
same,MIC,Escherichia coli [28],< 0.03 µg/mL
same,MIC,Escherichia coli [29],< 0.03 µg/mL
same,MIC,Escherichia coli [30],< 0.03 µg/mL
same,MIC,Enterobacter cloacae [31],< 0.03 µg/mL
same,MIC,Escherichia coli [32],< 0.03 µg/mL
same,MIC,Pseudomonas aeruginosa [33],1 µg/mL
same,MIC,Acinetobacter baumannii [34],64 µg/mL
same,MIC,Enterobacter cloacae [35],< 0.03 µg/mL
same,MIC,Klebsiella pneumoniae [36],< 0.03 µg/mL
same,MIC,Klebsiella pneumoniae [37],< 0.03 µg/mL
same,MIC,Klebsiella pneumoniae [38],0.06 µg/mL
same,MIC,Klebsiella aerogenes [39],0.125 µg/mL
same,MIC,Enterobacter cloacae [40],0.125 µg/mL
same,MIC,Escherichia coli [41],< 0.03 µg/mL
same,MIC,Klebsiella pneumoniae [42],> 64 µg/mL
same,MIC,Klebsiella pneumoniae [43],< 0.03 µg/mL
same,MIC,Escherichia coli [44],< 0.03 µg/mL
same,MIC,Pseudomonas aeruginosa [45],1 µg/mL
same,MIC,Acinetobacter baumannii [46],16 µg/mL
same,MIC,Enterobacter cloacae [47],0.06 µg/mL
same,MIC,Klebsiella pneumoniae [48],1 µg/mL
same,MIC,Escherichia coli [49],< 0.03 µg/mL
same,MIC,Escherichia coli [50],< 0.03 µg/mL
same,MIC,Klebsiella pneumoniae [51],< 0.03 µg/mL
same,MIC,Escherichia coli [52],< 0.03 µg/mL
same,MIC,Klebsiella aerogenes [53],0.125 µg/mL
same,MIC,Pseudomonas aeruginosa [54],2 µg/mL

# — ChEMBL document CHEMBL4813981, “Synthesis and in vitro antibacterial activity of new aminothiazole-oximepiperidone cephalosporins” (2021)
